Experimental data taken from ChEMBL document CHEMBL1152023, “Phenyl pyrrolidine analogues as potent nicotinic acetylcholine receptor (nAChR) ligands” (Bioorg Med Chem Lett, 1995).

target: Neuronal acetylcholine receptor; assay: Ability to displace [3H](-)-cytisine from nicotinic acetylcholine receptor (nAChR) in a whole rat brain preparation

| Ki | Compound |
| --- | --- |
| 420 nM | CN1CCCC1c1ccc(F)c(F)c1 (configuration not stated) |
| 75 nM | CN1CCCC1c1ccc(Br)cc1 (configuration not stated) |
| 1330 nM | Cc1ccc(C2CCCN2C)cc1 (configuration not stated) |
| 8250 nM | COc1cc(C2CCCN2C)ccc1O (configuration not stated) |
| 9000 nM | Cc1ccccc1C1CCCN1C (configuration not stated) |
| 68 nM | CN1CCCC1c1ccc(Cl)c(Cl)c1 (configuration not stated) |
| 719 nM | Cc1cccc(C2CCCN2C)c1 (configuration not stated) |
| 931 nM | CN1CCCC1c1ccc(C(F)(F)F)cc1 (configuration not stated) |
| 164 nM | CN1CCCC1c1ccc(Cl)cc1 (configuration not stated) |
| > 10000 nM | COc1ccccc1C1CCCN1C (configuration not stated) |
| 597 nM | COc1cccc(C2CCCN2C)c1 (configuration not stated) |
| 46 nM | CN1CCCC1c1ccc2c(c1)OCO2 (configuration not stated) |
| 1220 nM | CN1CCCC1c1ccc2c(c1)OCCO2 (configuration not stated) |
| > 10000 nM | Clc1ccc(C2=NCCC2)cc1 |
| 9700 nM | COc1ccc(C2CCCN2C)cc1OC (configuration not stated) |
| 207 nM | CN1CCCC1c1ccc(F)cc1 (configuration not stated) |
| 707 nM | COc1ccc(C2CCCN2C)cc1 (configuration not stated) |
| 227 nM | CN1CCCC1c1cccc(Cl)c1 (configuration not stated) |

| Compound | Ki |
| --- | --- |
| COc1cc2c(cc1O)CCN1CC=C3C=C[C@H](OC)C[C@]321 [ERYSODINE] | 5 nM |
| Fc1cccc(C2=NCCC2)c1 | > 10000 nM |
| CN1CCCC1c1cccc(F)c1 (configuration not stated) | 399 nM |
| c1ccc(C2CCCN2)cc1 (configuration not stated) | 8700 nM |
